Consider one compound from patent US20210069295A1, “GALECTINS CONTROL MTOR IN RESPONSE TO ENDOMEMBRANE DAMAGE AND PROVIDE A MECHANISM AND TARGET FOR THE TREATMENT OF AUTOPHAGY-RELATED DISEASES” (STC. UNM, priority 2017, published 2021).

Peptide text beside a SMILES is read from it.

This test has as its system mTOR. The test is described as follows: mTOR activity by immunoblotting of S6K1 (T389) and ULK1 (S757) phosphorylation in HEK293T cells. Type of test: cell-based. As for the experimental part: (A) Dose-response analysis of mTOR activity in HEK293T cells treated with glycyl-L-phenylalanine 2-naphththylamide (GPN) in full medium for 1 h. mTOR activity was monitored by inununoblotting analysis of S6K1 (T389) and ULK1 (S757) phosphorylation (phosphorylated S6K (T389) and ULK1 (S757) relative to total S6K and ULK1, respectively). (B) Analysis of mTOR activity (as in A) after GPN washout. HEK293T cells were treated with 100 μM GPN for 1 h followed by 1 h washout in full medium. Data, means±SEM (n=3), **p<0.01, ANOVA. (C) Analysis of mTOR activity (as in A) in HEK293T cells treated with increasing doses of silica in full medium for 1 h. (D) HEK293T cells were treated with lysosomal damaging agents (LLOMe, Leu-Leu-OMe) for 1 h in full medium and status of acidified organelles assessed by quantifying LysoTracker Red DND-99 puncta using automated high-content imaging and analysis (HC). None-treated cells were as control (Ctrl). White masks, algorithm defined cell boundaries (primary objects); yellow masks, computer-identified LysoTracker Red puncta (target objects). Data, means±SEM, n≥3 independent experiments (500 primary objects counted per well; ≥5 wells/sample per each experiment), **p<0.01, ANOVA. (E) Analysis of mTOR activity in primary human macrophages treated with GPN. Human peripheral blood monocyte derived macrophages were treated with 100 μM GPN in full medium or starved in EBSS for 1 h, and mTOR activity measured as in A. None-treated cells were as control (Ctrl). (F) Quantification by HC of overlaps between mTOR and LAMP2 (representative images shown in FIG. S1D) in HeLa cells treated with lysosomal damaging agents for 1 h in full medium. Data, means±SEM, n≥3 independent experiments (500 primary objects counted per well; ≥5 wells/sample per each experiment) **p<0.01, ANOVA. (G) Immunofluorescence confocal microscopy visualization of mTOR localization relative to LAMP2-positive lysosomes. […] (H) Analysis of TFEB nuclear translocation in HeLa cells treated with 100 μM GPN in full medium for 1 h, and the nuclear translocation of TFEB was measured by HC (Nuclei, Hoechst 33342, blue pseudocolor; TFEB red fluorescence, Alexa-568). […] White masks, computer algorithm-defined cell boundaries (primary objects); pink masks, computer-identified nuclear TFEB based on the average intensity of Alexa-568 fluorescence. Data, means±SEM, n≥3 independent experiments (500 primary objects counted per well; ≥5 wells/sample per each experiment), **p<0.01, ANOVA. (I) HeLa cells were treated as indicated in full medium for 1 h, and LC3 puncta were quantified by HC. […] Data, means±SEM, n≥3 independent experiments (500 primary objects counted per well; ≥5 wells/sample per each experiment), **p<0.01, ANOVA. […]
Background: In western blotting, separated proteins are transferred to a membrane and probed.

Take `NCC(=O)N[C@@H](Cc1ccccc1)C(=O)Nc1ccc2ccccc2c1` [GPN, glycyl-L-phenylalanine 2-naphththylamide] (HELM PEPTIDE1{G.F.[c1ccc2cc(N[*:1])ccc2c1]}$$$$V2.0): under “100 μM GPN for 1 h followed by 1 h washout in full medium”, the “mTOR activity after washout” value is recorded as “reversed”. The “mTOR activity (phosphorylation of its substrates S6K1 and ULK1)” value (HEK293T cells, full medium, 1 h) is “diminished mTOR activity”. Also, the “mTOR activity (S6K1 phosphorylation) in cells expressing constitutively active RagBQ99L” value (HEK293T stably expressing RagBQ99L, 100 μM GPN 1 h) is reported as “not the case”.
